Experimental data: patent US7772241B2, “Variolin derivatives and their use as antitumor agents” (Pharma Mar S.A., priority 2001, dated 2010)
Read-outs that look alike come from different tables or passages of the source.

Assays:
IGROV-1 = test: Inhibition of cells growth by colorimetric (SRB) assay, IGROV-1; details: for GI50: read-out: GI50 IGROV, SRB assay, 48 hours exposure
Outline: (§1)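 Read-out is sulforhodamine B protein stain (OD 490 nm) after cold TCA fixation, following 48 h continuous exposure to samples spanning 10 to 10^−8 μg/ml.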

A-549 = test: Inhibition of cells growth by colorimetric (SRB) assay, A-549; details: for CC50: Homo sapiens, A549, 48 h, read-out: LC50 A-549, SRB assay, 48 hours exposure; for TGI A-549 / GI50: SRB assay, 48 hours exposure; for GI50: read-out: GI50 A-549
Outline: as §1

DU-145 = test: Inhibition of cells growth by colorimetric (SRB) assay, DU-145
Outline: as §1

SK-BR-3 = test: Inhibition of cells growth by colorimetric (SRB) assay, SK-BR-3
Excerpt: (§2) The finality of these assays is to interrupt the growth of a “in vitro” tumor cell culture by means a continued exhibition of the cells to the sample to be testing.
(§3) This form of the assay employs 96 well cell culture microplates of 9 mm diameter (Faircloth, 1988; Mosmann, 1983). Most of the cell lines are obtained from American Type Culture Collection (ATCC) derived from different human cancer types.
(§4) Cells are maintained in RPMI 1640 10% FBS, supplemented with 0.1 g/l penicillin and 0.1 g/l streptomycin sulphate and then incubated at 37° C., 5% CO2 and 98% humidity. For the experiments, cells were harvested from subconfluent cultures using trypsin and resuspended in fresh medium before plating.
(§5) Cells are seeded in 96 well microtiter plates, at 5×10^3 cells per well in aliquots of 195 μl medium, and they are allowed to attach to the plate surface by growing in drug free medium for 18 hours. Afterward, samples are added in aliquots of 5 μl in a ranging from 10 to 10^−8 μg/ml, dissolved in DMSO/EtOH/PBS (0.5:0.5:99). After 48 hours exposure, the antitumor effect are measured by the SRB methodology: cells are fixed by adding 50 μl of cold 50% (wt/vol) trichloroacetic acid (TCA) and incubating for 60 minutes at 4° C. Plates are washed with deionized water and dried. One hundred μl of SRB solution (0.4% wt/vol in 1% acetic acid) is added to each microtiter well and incubated for 10 minutes at room temperature. Unbound SRB is removed by washing with 1% acetic acid. Plates are air dried and bound stain is solubilized with Tris buffer. Optical densities are read on a automated spectrophotometric plate reader at a single wavelength of 490 nm.
(§6) The values for mean +/−SD of data from triplicate wells are calculated. Some parameters for cellular responses can be calculated: GI=growth inhibition, TGI=total growth inhibition (cytostatic effect) and LC=cell killing (cytotoxic effect).

PANC-1 = test: Inhibition of cells growth by colorimetric (SRB) assay, PANC-1; details: for CC50: Homo sapiens, PANC-1, 48 h, read-out: LC50 PANC-1, SRB assay, 48 hours exposure; for TGI PANC-1 / GI50: SRB assay, 48 hours exposure; for GI50: read-out: GI50 PANC-1
Outline: as §1

HMEC1 = test: Inhibition of cells growth by colorimetric (SRB) assay, HMEC1; details: for GI50: Homo sapiens, HMEC-1, 48 h, read-out: GI50 H-MEC-1, SRB assay, 48 hours exposure; for TGI H-MEC-1 / CC50: SRB assay, 48 hours exposure; for TGI H-MEC-1: in M (unit assumed); for CC50: read-out: LC50 H-MEC-1
Excerpt: as §2, §3, §4, §5, §6

LoVo = test: Inhibition of cells growth by colorimetric (SRB) assay, LoVo; details: for GI50: Homo sapiens, LoVo, 48 h, read-out: GI50 LOVO, SRB assay, 48 hours exposure; for TGI LOVO / CC50: SRB assay, 48 hours exposure; for CC50: read-out: LC50 LOVO
Outline: as §1

K-562 = test: Inhibition of cells growth by colorimetric (SRB) assay, K-562; details: for CC50: Homo sapiens, K562, 48 h, read-out: LC50 K-562, SRB assay, 48 hours exposure; for TGI K-562 / GI50: SRB assay, 48 hours exposure; for GI50: read-out: GI50 K-562
Outline: as §1

LNCaP = test: Inhibition of cells growth by colorimetric (SRB) assay, LNCaP; details: for CC50: read-out: LC50 LN-caP
Outline: as §1

HT-29 = test: Inhibition of cells growth by colorimetric (SRB) assay, HT-29; details: for CC50: read-out: LC50 HT-29, SRB assay, 48 hours exposure
Outline: as §1

SK-MEL-28 = test: Inhibition of cells growth by colorimetric (SRB) assay, SK-MEL-28; details: for GI50 / CC50: Homo sapiens, SK-MEL-28, 48 h; for GI50: read-out: GI50 MEL-28, SRB assay, 48 hours exposure; for CC50: read-out: LC50 MEL-28, SRB assay, 48 hours exposure; for TGI MEL-28: SRB assay, 48 hours exposure
Outline: as §1

LoVo-Dox = test: Inhibition of cells growth by colorimetric (SRB) assay, LoVo-Dox; details: for GI50 / CC50: Homo sapiens, 48 h; for GI50: read-out: GI50 LOVO-DOX, SRB assay, 48 hours exposure; for CC50: read-out: LC50 LOVO-DOX, SRB assay, 48 hours exposure; for TGI LOVO-DOX: SRB assay, 48 hours exposure
Outline: as §1

IGROV-ET = test: Inhibition of cells growth by colorimetric (SRB) assay, IGROV-ET; details: for GI50 / CC50: Homo sapiens, 48 h; for GI50: read-out: GI50 IGROV-ET, SRB assay, 48 hours exposure; for CC50: read-out: LC50 IGROV-ET, SRB assay, 48 hours exposure; for TGI IGROV-ET: SRB assay, 48 hours exposure
Outline: as §1

SK-OV-3 = test: Inhibition of cells growth by colorimetric (SRB) assay, SK-OV-3; details: for CC50: read-out: LC50 SKOV-3, SRB assay, 48 hours exposure; for TGI SKOV-3: SRB assay, 48 hours exposure
Outline: as §1

## Cc1ccc2c(-c3ccnc(N)n3)c3ccnc(N)n3c2n1.Cl [Compound 44]
IGROV-1; Homo sapiens, IGROV-1, 48 h
  GI50: 1080 nM
IGROV-1; Homo sapiens, IGROV-1, 48 h, read-out: LC50 IGROV, SRB assay, 48 hours exposure
  CC50: 24600 nM
IGROV-1; SRB assay, 48 hours exposure
  TGI IGROV: 6.34E−06
A-549
  CC50: 27500 nM
  TGI A-549: 2.75E−05
  GI50: 9170 nM
DU-145; Homo sapiens, DU-145, 48 h, read-out: GI50 DU-145, SRB assay, 48 hours exposure
  GI50: 475 nM
DU-145; SRB assay, 48 hours exposure
  TGI DU-145: 1.51E−06
SK-BR-3; Homo sapiens, SK-BR-3, 48 h, read-out: GI50 SK-BR-3, SRB assay, 48 hours exposure
  GI50: 612 nM
SK-BR-3; Homo sapiens, SK-BR-3, 48 h, read-out: LC50 SK-BR-3, SRB assay, 48 hours exposure
  CC50: 6310 nM
SK-BR-3; SRB assay, 48 hours exposure
  TGI SK-BR-3: 1.61E−06
PANC-1
  CC50: 27500 nM
  TGI PANC-1: 9.94E−06
  GI50: 1710 nM
HMEC1
  GI50: 158 nM
  TGI H-MEC-1: 3.07E−07
  CC50: 1310 nM
LoVo
  GI50: 456 nM
  TGI LOVO: 1.13E−06
  CC50: 2750 nM
K-562
  CC50: 27500 nM
  TGI K-562: 2.75E−05
  GI50: 4170 nM
LNCaP; SRB assay, 48 hours exposure
  TGI LN-caP: 7.85E−07
  CC50: 1760 nM
LNCaP; read-out: GI50 LN-caP, SRB assay, 48 hours exposure
  GI50: 351 nM
HT-29; Homo sapiens, HT-29, 48 h
  CC50: 27500 nM
HT-29; SRB assay, 48 hours exposure
  TGI HT-29: 1.09E−05
HT-29; read-out: GI50 HT-29, SRB assay, 48 hours exposure
  GI50: 1090 nM
SK-MEL-28
  GI50: 601 nM
  CC50: 8950 nM
  TGI MEL-28: 2.11E−06
LoVo-Dox
  GI50: 777 nM
  CC50: 23500 nM
  TGI LOVO-DOX: 3.27E−06
IGROV-ET
  GI50: 568 nM
  CC50: 17200 nM
  TGI IGROV-ET: 1.87E−06
SK-OV-3; Homo sapiens, SK-OV-3, 48 h
  CC50: 27500 nM
SK-OV-3
  TGI SKOV-3: 2.75E−05

## Cl.Nc1nccc(-c2c3cc4ccccc4nc3n3c(N)nccc23)n1 [Compound 42]
IGROV-1; Homo sapiens, IGROV-1, 48 h
  GI50: 1560 nM
IGROV-1; SRB assay, 48 hours exposure
  TGI IGROV: 5.15E−06
IGROV-1; read-out: LC50 IGROV, SRB assay, 48 hours exposure
  CC50: 13000 nM
A-549
  CC50: 14300 nM
  TGI A-549: 2.26E−06
  GI50: 135 nM
DU-145; SRB assay, 48 hours exposure
  TGI DU-145: 6.10E−06
DU-145; read-out: GI50 DU-145, SRB assay, 48 hours exposure
  GI50: 1480 nM
DU-145; read-out: LC50 DU-145, SRB assay, 48 hours exposure
  CC50: 21100 nM
SK-BR-3; SRB assay, 48 hours exposure
  TGI SK-BR-3: 3.22E−07
SK-BR-3; read-out: GI50 SK-BR-3, SRB assay, 48 hours exposure
  GI50: 67.7 nM
SK-BR-3; read-out: LC50 SK-BR-3, SRB assay, 48 hours exposure
  CC50: 1670 nM
PANC-1
  CC50: 25000 nM
  TGI PANC-1: 2.50E−05
  GI50: 8870 nM
HMEC1
  GI50: 114 nM
  TGI H-MEC-1: 5.32E−07
  CC50: 1860 nM
LoVo
  GI50: 884 nM
  TGI LOVO: 5.42E−06
  CC50: 25000 nM
K-562
  CC50: 14600 nM
  TGI K-562: 7.69E−06
  GI50: 4070 nM
LNCaP; Homo sapiens, LNCaP, 48 h, read-out: GI50 LN-caP, SRB assay, 48 hours exposure
  GI50: 432 nM
LNCaP; SRB assay, 48 hours exposure
  TGI LN-caP: 1.25E−06
  CC50: 5970 nM
HT-29; Homo sapiens, HT-29, 48 h, read-out: GI50 HT-29, SRB assay, 48 hours exposure
  GI50: 1990 nM
HT-29; Homo sapiens, HT-29, 48 h
  CC50: 25000 nM
HT-29; SRB assay, 48 hours exposure
  TGI HT-29: 2.50E−05
SK-MEL-28
  GI50: 2560 nM
  CC50: 25000 nM
  TGI MEL-28: 2.50E−05
LoVo-Dox
  GI50: 954 nM
  CC50: 15500 nM
  TGI LOVO-DOX: 3.62E−06
IGROV-ET
  GI50: 1700 nM
  CC50: 15400 nM
  TGI IGROV-ET: 5.45E−06
SK-OV-3; Homo sapiens, SK-OV-3, 48 h, read-out: GI50 SKOV-3, SRB assay, 48 hours exposure
  GI50: 1080 nM
SK-OV-3; Homo sapiens, SK-OV-3, 48 h
  CC50: 21500 nM
SK-OV-3
  TGI SKOV-3: 5.32E−06
